Tests used:
[1] = system: Staphylococcus aureus ATCC 25923; test: Antibacterial activity, disk diffusion Bauer-Kirby method; type: cell-based; conditions: Müller-Hinton medium pH 7.2-7.4
Description: (§1) The antimicrobial activities were assessed on a large set of Gram-positive and Gram-negative bacterial strains. […] Peptide antibacterial activity was tested against Gram-positive and Gram-negative bacteria by the standardized disk diffusion Bauer-Kirby method using the Müller-Hinton culture medium at pH 7.2-7.4 as recommended by the National Committee for Clinical Laboratory Standards. The antibacterial activity assay was performed in a similar way to that described in reference. The activity of peptides was tested against clinical isolates of bacteria and reference bacterial strains: Staphylococcus aureus American Type Culture Collection strains (ATCC) 25923, Streptococcus pyogenes ATCC 19615, Escherichia coli ATCC 25922, Pseudomonas aeruginosa ATCC 27853, Klebsiella pneumoniae ATCC 13883, Salmonella entereditis 13076, and Proteus mirabilis ATCC 10975. The well-known antibiotics bacitracin and tetracyclin (10 μg/disk) were used as controls.

[2] = system: Streptococcus pyogenes ATCC 19615; test: as above; type: cell-based; conditions: Müller-Hinton medium pH 7.2-7.4
Description: as §1

For [Leu^11-OMe] trichogin GA IV, the “antimicrobial activity on Staphylococcus aureus” value [1] was “active” and the “antimicrobial activity on Streptococcus pyrogenes” value [2] was “active”.
